Numbered stars: 1 amine (or outer) side, 2 acyl side, 3 side chain; on linkers, the order of the positions; unused ones are H or OH. Bridge positions count the residues as written; N and C are the ends. Square brackets hold non-standard residues; d marks the D form. Peptide text beside a SMILES is read from it. I, II: the chains in the order shown. 2Nal = N[C@@H](Cc1ccc2ccccc2c1)C(=O)O; Diglycolyl = O=C(COCC(=O)[*:2])[*:1]; NMeR = CN[C@@H](CCCNC(=N)N)C(=O)O; β3hE = N[C@@H](CCC(=O)O)CC(=O)O; Pen = CC(C)(S)[C@H](N)C(=O)O
Key:
[1] = Simulated Gastric Fluid (SGF) Assay; format: in vitro ADME; details: pig, simulated gastric fluid (SGF) with porcine pepsin, pH 2; Table 4-C, t1/2
Description: SGF was prepared by adding 20 mg NaCl, 32 mg porcine pepsin (MP Biochemicals, catalog 02102599), and 70 μl HCl to 10 ml water (final pH=2). Aliquots of SGF (0.5 ml each) were pre-warmed at 37° C. For each peptide tested, to start the reaction, 1 μl of peptide stock solution (10 mM in DMSO) was added to 0.5 ml SGF and thoroughly mixed such that the final peptide concentration was 20 μM. The reactions were incubated at 37° C. with gentle shaking. At each time point (0, 15, 30, 60 min), 50 μl aliquots were removed and added to 200 ul acetonitrile containing 0.1% formic acid to quench the reaction. Samples were stored at 4° C. until the end of the experiment and centrifuged at 10,000 rpm for 5 minutes. Aliquots of the supernatant were removed, diluted 1:1 into distilled water containing internal standard, and analyzed by LCMS/MS. Percent remaining at each timepoint was calculated based on the peak area response ratio of test compound to internal standard. Time 0 was set to 100%, and all later timepoints were calculated relative to time 0. Half-lives were calculated by fitting to a first-order exponential decay equation using GraphPad.

α4β7 [2] = target: α4β7 (Homo sapiens, UniProt P13612+P26010); assay: PBMC Memory T Cell Adhesion Assay, adhesion to MAdCAM-1; format: cell-based; details: Table 4-B; read-out: Cell Adhesion PBMC IC50
α4β7 (Homo sapiens, UniProt P13612+P26010), sequence (P13612 34-1032): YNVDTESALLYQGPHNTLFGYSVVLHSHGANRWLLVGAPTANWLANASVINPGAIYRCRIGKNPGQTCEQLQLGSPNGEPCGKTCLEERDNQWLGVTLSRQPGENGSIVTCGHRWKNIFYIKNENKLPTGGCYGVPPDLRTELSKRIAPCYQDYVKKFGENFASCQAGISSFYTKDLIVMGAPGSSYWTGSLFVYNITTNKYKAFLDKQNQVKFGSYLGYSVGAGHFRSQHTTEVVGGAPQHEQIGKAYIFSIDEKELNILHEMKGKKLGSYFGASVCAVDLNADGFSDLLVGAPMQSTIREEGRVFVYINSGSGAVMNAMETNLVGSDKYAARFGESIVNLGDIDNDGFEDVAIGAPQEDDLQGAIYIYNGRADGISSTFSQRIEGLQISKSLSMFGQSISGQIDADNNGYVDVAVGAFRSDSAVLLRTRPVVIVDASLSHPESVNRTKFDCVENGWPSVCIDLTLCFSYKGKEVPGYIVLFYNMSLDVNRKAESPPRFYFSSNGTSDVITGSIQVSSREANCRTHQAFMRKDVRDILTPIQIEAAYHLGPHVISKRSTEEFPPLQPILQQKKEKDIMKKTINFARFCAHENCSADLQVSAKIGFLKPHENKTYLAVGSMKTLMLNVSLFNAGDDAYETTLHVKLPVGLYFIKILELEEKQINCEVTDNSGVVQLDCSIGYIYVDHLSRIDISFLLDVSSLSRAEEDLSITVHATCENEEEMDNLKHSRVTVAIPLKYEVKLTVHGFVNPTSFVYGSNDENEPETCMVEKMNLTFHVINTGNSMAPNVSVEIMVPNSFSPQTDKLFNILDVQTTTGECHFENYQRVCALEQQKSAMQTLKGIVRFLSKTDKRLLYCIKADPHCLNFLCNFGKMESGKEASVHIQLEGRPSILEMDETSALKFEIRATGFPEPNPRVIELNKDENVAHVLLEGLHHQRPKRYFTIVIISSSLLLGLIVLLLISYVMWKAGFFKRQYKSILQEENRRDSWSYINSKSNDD
α4β7 (Homo sapiens, UniProt P13612+P26010), sequence (P26010 20-798): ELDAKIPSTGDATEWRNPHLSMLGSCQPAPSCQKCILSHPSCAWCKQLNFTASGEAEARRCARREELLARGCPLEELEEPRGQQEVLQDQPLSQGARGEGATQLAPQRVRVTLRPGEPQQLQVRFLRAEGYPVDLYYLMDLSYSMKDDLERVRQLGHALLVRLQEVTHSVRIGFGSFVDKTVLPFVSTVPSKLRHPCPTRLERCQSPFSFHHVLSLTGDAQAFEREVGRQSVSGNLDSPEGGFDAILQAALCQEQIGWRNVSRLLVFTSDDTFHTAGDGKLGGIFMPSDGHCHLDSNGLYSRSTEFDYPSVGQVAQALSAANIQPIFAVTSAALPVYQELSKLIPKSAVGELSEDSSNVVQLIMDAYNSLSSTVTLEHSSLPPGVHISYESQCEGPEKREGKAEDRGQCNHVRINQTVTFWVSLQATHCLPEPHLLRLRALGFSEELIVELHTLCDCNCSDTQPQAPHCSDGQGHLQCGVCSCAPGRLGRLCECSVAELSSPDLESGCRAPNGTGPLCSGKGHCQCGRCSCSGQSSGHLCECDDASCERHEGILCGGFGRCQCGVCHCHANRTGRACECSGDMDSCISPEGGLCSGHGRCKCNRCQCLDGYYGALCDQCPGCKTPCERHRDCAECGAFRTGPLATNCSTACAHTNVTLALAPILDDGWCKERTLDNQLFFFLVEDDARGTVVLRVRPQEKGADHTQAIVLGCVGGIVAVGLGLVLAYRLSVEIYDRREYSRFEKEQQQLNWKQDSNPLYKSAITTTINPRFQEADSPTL
Procedure, shortened: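 Fresh human CD4+/CD45RO+ memory T cells in binding medium with 1 mM MnCl2 were preincubated with compound for 1.5 h at 37° C. on plates coated with Fc-captured MAdCAM-1 (400 ng/well). Adherent cells were read by fluorescence (Ex 485/Em 530). IC50 came from four-parameter nonlinear regression of RFU versus log concentration.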

α4β7 [3] = target: T1, α4β7 (Mus musculus, UniProt P26011+Q00651); assay: α4β7 Cell Adhesion Assay (Mouse), TK1 cells; format: cell-based; details: Table 4-B; read-out: Cell Adhesion α4β7 Mouse IC50
T1 construct: host or cells: TK1 mouse T cells
T1 sequence (Q00651 34-1039 limits assumed): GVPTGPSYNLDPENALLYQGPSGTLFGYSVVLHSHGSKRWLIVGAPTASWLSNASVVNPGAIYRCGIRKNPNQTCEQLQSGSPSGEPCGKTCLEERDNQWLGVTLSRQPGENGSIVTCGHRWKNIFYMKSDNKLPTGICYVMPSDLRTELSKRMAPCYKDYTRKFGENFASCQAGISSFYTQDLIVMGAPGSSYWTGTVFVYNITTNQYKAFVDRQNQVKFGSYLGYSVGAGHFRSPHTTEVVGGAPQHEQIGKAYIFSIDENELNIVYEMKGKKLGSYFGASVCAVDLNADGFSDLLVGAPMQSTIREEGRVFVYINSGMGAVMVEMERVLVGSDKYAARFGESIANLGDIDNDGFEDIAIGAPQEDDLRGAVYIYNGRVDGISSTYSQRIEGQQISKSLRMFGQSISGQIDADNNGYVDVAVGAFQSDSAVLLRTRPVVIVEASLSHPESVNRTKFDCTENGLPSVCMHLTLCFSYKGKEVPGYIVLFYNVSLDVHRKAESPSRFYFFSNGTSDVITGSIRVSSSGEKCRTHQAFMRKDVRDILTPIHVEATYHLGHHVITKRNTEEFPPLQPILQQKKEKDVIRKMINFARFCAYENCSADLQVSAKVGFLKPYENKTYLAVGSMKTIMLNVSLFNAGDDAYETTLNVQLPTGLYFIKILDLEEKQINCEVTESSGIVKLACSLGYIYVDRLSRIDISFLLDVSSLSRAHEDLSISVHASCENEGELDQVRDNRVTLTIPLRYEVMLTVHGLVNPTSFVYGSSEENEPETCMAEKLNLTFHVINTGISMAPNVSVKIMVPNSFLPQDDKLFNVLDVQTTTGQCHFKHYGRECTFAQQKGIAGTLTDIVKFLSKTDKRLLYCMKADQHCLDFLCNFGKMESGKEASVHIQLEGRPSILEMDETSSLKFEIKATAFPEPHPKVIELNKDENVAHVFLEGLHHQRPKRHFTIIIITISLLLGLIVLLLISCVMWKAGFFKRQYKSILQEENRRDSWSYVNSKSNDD
T1 sequence (P26011 20-806): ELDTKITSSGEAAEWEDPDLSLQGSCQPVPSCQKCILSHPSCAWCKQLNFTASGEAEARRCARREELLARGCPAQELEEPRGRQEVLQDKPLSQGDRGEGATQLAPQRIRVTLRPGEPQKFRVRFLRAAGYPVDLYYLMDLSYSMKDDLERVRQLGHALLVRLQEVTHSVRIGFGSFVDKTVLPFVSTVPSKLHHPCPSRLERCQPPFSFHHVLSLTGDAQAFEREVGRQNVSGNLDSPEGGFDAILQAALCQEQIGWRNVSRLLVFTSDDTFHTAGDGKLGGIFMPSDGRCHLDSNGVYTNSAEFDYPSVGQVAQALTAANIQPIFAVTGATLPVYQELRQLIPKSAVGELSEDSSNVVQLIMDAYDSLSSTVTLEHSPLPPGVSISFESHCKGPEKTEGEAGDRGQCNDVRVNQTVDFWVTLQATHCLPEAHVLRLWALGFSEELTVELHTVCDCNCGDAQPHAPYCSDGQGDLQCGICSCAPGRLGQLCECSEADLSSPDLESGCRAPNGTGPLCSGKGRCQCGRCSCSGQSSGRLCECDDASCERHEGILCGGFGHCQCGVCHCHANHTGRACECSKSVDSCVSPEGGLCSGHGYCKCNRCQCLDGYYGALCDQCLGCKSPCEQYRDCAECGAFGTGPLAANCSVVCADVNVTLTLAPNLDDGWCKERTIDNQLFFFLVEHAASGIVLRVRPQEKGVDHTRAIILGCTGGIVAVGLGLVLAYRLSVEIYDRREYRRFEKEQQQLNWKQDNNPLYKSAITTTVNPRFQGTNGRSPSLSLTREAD
Procedure, shortened: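 Mouse TK1 cells in DMEM with 0.1% BSA, 10 mM HEPES pH 7 and 1 mM MnCl2 were allowed to adhere for 30-45 min at 37 °C to plates coated with recombinant human MAdCAM-1 Fc (200 ng/well) in the presence of serially diluted peptides. Adherent cells were quantified by MTT absorbance at 570 nm, with no-cell background subtracted for dose response.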

SMILES	half-life at 20 μM [1] [h]	IC50 (α4β7 [2]) [nM]	IC50 (α4β7 [3]) [nM]
CC(=O)N[C@H]1CSSC[C@@H](C(=O)NCC(=O)N[C@@H](CCC(=O)O)C(=O)N[C@@H](CCCCN)C(=O)O)NC(=O)[C@H](CC(C)C)NC(=O)[C@H]([C@@H](C)O)NC(=O)[C@H](CC(=O)O)NC(=O)[C@H](CO)NC(=O)[C@H](CCCNC(=N)N)N(C)C1=O [compound 199, Ac-C-N-Me-R-S-D-T-L-C-G-E-K-OH] (Ac-C[NMeR]SDTLCGEK-OH; disulfide 1-7)	> 6	–	–
CC(=O)N[C@H]1CSSC[C@@H](C(=O)NCC(=O)N[C@@H](CCC(=O)O)C(=O)N[C@@H](CCCCNC(=O)COCC(=O)NCCCC[C@H](NC(=O)[C@H](CCC(=O)O)NC(=O)CNC(=O)[C@@H]2CSSC[C@H](NC(C)=O)C(=O)N(C)[C@@H](CCCNC(=N)N)C(=O)N[C@@H](CO)C(=O)N[C@@H](CC(=O)O)C(=O)N[C@@H]([C@@H](C)O)C(=O)N[C@@H](CC(C)C)C(=O)N2)C(=O)O)C(=O)O)NC(=O)[C@H](CC(C)C)NC(=O)[C@H]([C@@H](C)O)NC(=O)[C@H](CC(=O)O)NC(=O)[C@H](CO)NC(=O)[C@H](CCCNC(=N)N)N(C)C1=O [compound 201, (Ac-C-N-Me-R-S-D-T-L-C-G-E-K-OH)2-DIG] (I: Ac-C[NMeR]SDTLCGEK-OH / II: Ac-C[NMeR]SDTLCGEK-OH; disulfide I:1-I:7, II:1-II:7 (inferred); linker I:10-II:10 via Diglycolyl (inferred))	> 6	–	–
CC(=O)N[C@H]1CSSC(C)(C)[C@@H](C(=O)N[C@@H](Cc2c[nH]c3ccccc23)C(=O)N[C@H](CCCCNC(=O)COCC(=O)NCCCC[C@@H](NC(=O)[C@H](Cc2c[nH]c3ccccc23)NC(=O)[C@H]2NC(=O)[C@H](CC(C)C)NC(=O)[C@H]([C@@H](C)O)NC(=O)[C@H](CC(=O)O)NC(=O)[C@H](CO)NC(=O)[C@H](CCCNC(=N)N)N(C)C(=O)[C@@H](NC(C)=O)CSSC2(C)C)C(N)=O)C(N)=O)NC(=O)[C@H](CC(C)C)NC(=O)[C@H]([C@@H](C)O)NC(=O)[C@H](CC(=O)O)NC(=O)[C@H](CO)NC(=O)[C@H](CCCNC(=N)N)N(C)C1=O [compound 204, (Ac-C-N-Me-R-S-D-T-L-Pen-W-k-NH2)2-DIG] (I: Ac-C[NMeR]SDTL[Pen]W[dK]-NH2 / II: Ac-C[NMeR]SDTL[Pen]W[dK]-NH2; disulfide I:1-I:7, II:1-II:7 (inferred); linker I:9-II:9 via Diglycolyl (inferred))	> 6	1280	–
CC(=O)N[C@@H]1C(=O)N[C@@H](CCCNC(=N)N)C(=O)N[C@@H](CO)C(=O)N[C@@H](CC(=O)O)C(=O)N[C@@H]([C@@H](C)O)C(=O)N[C@@H](CC(C)C)C(=O)N[C@H](C(=O)N[C@H](CCCCNC(=O)COCC(=O)NCCCC[C@@H](NC(=O)[C@@H]2CSSC(C)(C)[C@H](NC(C)=O)C(=O)N[C@@H](CCCNC(=N)N)C(=O)N[C@@H](CO)C(=O)N[C@@H](CC(=O)O)C(=O)N[C@@H]([C@@H](C)O)C(=O)N[C@@H](CC(C)C)C(=O)N2)C(N)=O)C(N)=O)CSSC1(C)C [compound 207, (Ac-Pen-R-S-D-T-L-C-k-NH2)2-DIG] (I: Ac-[Pen]RSDTLC[dK]-NH2 / II: Ac-[Pen]RSDTLC[dK]-NH2; disulfide I:1-I:7, II:1-II:7 (inferred); linker I:8-II:8 via Diglycolyl (inferred))	> 1	–	–
CC(=O)N[C@@H]1C(=O)N(C)[C@@H](CCCNC(=N)N)C(=O)N[C@@H](CO)C(=O)N[C@@H](CC(=O)O)C(=O)N[C@@H]([C@@H](C)O)C(=O)N[C@@H](CC(C)C)C(=O)N[C@H](C(=O)N[C@@H](Cc2c[nH]c3ccccc23)C(=O)N[C@H](CCCCN)C(N)=O)C(C)(C)SSC1(C)C [compound 208, Ac-Pen-N-Me-R-S-D-T-L-Pen-W-k-NH2] (Ac-[Pen][NMeR]SDTL[Pen]W[dK]-NH2; disulfide 1-7)	> 6	–	–
CC(=O)N[C@@H]1C(=O)N(C)[C@@H](CCCNC(=N)N)C(=O)N[C@@H](CO)C(=O)N[C@@H](CC(=O)O)C(=O)N[C@@H]([C@@H](C)O)C(=O)N[C@@H](CC(C)C)C(=O)N[C@H](C(=O)N[C@@H](Cc2c[nH]c3ccccc23)C(=O)N[C@H](CCC(=O)O)C(=O)N[C@H](CCCCNC(=O)COCC(=O)NCCCC[C@@H](NC(=O)[C@@H](CCC(=O)O)NC(=O)[C@H](Cc2c[nH]c3ccccc23)NC(=O)[C@H]2NC(=O)[C@H](CC(C)C)NC(=O)[C@H]([C@@H](C)O)NC(=O)[C@H](CC(=O)O)NC(=O)[C@H](CO)NC(=O)[C@H](CCCNC(=N)N)N(C)C(=O)[C@@H](NC(C)=O)C(C)(C)SSC2(C)C)C(N)=O)C(N)=O)C(C)(C)SSC1(C)C [compound 211, (Ac-Pen-N-Me-R-S-D-T-L-Pen-W-e-k-NH2)2-DIG] (I: Ac-[Pen][NMeR]SDTL[Pen]W[dE][dK]-NH2 / II: Ac-[Pen][NMeR]SDTL[Pen]W[dE][dK]-NH2; disulfide I:1-I:7, II:1-II:7 (inferred); linker I:10-II:10 via Diglycolyl (inferred))	> 1	–	7.3
CC(=O)N[C@@H]1C(=O)N(C)[C@@H](CCCNC(=N)N)C(=O)N[C@@H](CO)C(=O)N[C@@H](CC(=O)O)C(=O)N[C@@H]([C@@H](C)O)C(=O)N[C@@H](CC(C)C)C(=O)N[C@H](C(=O)N[C@@H](Cc2ccc3ccccc3c2)C(=O)N[C@@H](CCC(=O)O)C(=O)N[C@H](CCCCNC(=O)COCC(=O)NCCCC[C@@H](NC(=O)[C@H](CCC(=O)O)NC(=O)[C@H](Cc2ccc3ccccc3c2)NC(=O)[C@H]2NC(=O)[C@H](CC(C)C)NC(=O)[C@H]([C@@H](C)O)NC(=O)[C@H](CC(=O)O)NC(=O)[C@H](CO)NC(=O)[C@H](CCCNC(=N)N)N(C)C(=O)[C@@H](NC(C)=O)C(C)(C)SSC2(C)C)C(N)=O)C(N)=O)C(C)(C)SSC1(C)C [compound 212, (Ac-Pen-N-Me-R-S-D-T-L-Pen-2-Nal-E-k-NH2)2-DIG] (I: Ac-[Pen][NMeR]SDTL[Pen][2Nal]E[dK]-NH2 / II: Ac-[Pen][NMeR]SDTL[Pen][2Nal]E[dK]-NH2; disulfide I:1-I:7, II:1-II:7 (inferred); linker I:10-II:10 via Diglycolyl (inferred))	0.65	–	–
CC(=O)N[C@@H]1C(=O)N(C)[C@@H](CCCNC(=N)N)C(=O)N[C@@H](CO)C(=O)N[C@@H](CC(=O)O)C(=O)N[C@@H]([C@@H](C)O)C(=O)N[C@@H](CC(C)C)C(=O)N[C@H](C(=O)N[C@@H](Cc2c[nH]c3ccccc23)C(=O)N[C@@H](CCC(=O)O)CC(=O)N[C@H](CCCCNC(=O)COCC(=O)NCCCC[C@@H](NC(=O)C[C@H](CCC(=O)O)NC(=O)[C@H](Cc2c[nH]c3ccccc23)NC(=O)[C@H]2NC(=O)[C@H](CC(C)C)NC(=O)[C@H]([C@@H](C)O)NC(=O)[C@H](CC(=O)O)NC(=O)[C@H](CO)NC(=O)[C@H](CCCNC(=N)N)N(C)C(=O)[C@@H](NC(C)=O)C(C)(C)SSC2(C)C)C(N)=O)C(N)=O)C(C)(C)SSC1(C)C [compound 213, [Ac-Pen-(N-Me-Arg)-Ser-Asp-Thr-Leu-Pen-Trp-(β-homoGlu)-(D-Lys)-NH2]2-DIG] (I: Ac-[Pen][NMeR]SDTL[Pen]W[β3hE][dK]-NH2 / II: Ac-[Pen][NMeR]SDTL[Pen]W[β3hE][dK]-NH2; disulfide I:1-I:7, II:1-II:7; linker I:10-II:10 via Diglycolyl)	> 3	–	4.2
CC(=O)N[C@@H]1C(=O)N(C)[C@@H](CCCNC(=N)N)C(=O)N[C@@H](CO)C(=O)N[C@@H](CC(=O)O)C(=O)N[C@@H]([C@@H](C)O)C(=O)N[C@@H](CC(C)C)C(=O)N[C@H](C(=O)N[C@@H](Cc2c[nH]c3ccccc23)C(=O)N[C@@H](CCC(=O)O)C(=O)N[C@H](CCCCNC(=O)COCC(=O)NCCCC[C@@H](NC(=O)[C@H](CCC(=O)O)NC(=O)[C@H](Cc2c[nH]c3ccccc23)NC(=O)[C@H]2NC(=O)[C@H](CC(C)C)NC(=O)[C@H]([C@@H](C)O)NC(=O)[C@H](CC(=O)O)NC(=O)[C@H](CO)NC(=O)[C@H](CCCNC(=N)N)N(C)C(=O)[C@@H](NC(C)=O)C(C)(C)SSC2(C)C)C(N)=O)C(N)=O)C(C)(C)SSC1(C)C [compound 217, (Ac-Pen-N-Me-R-S-D-T-L-Pen-W-E-k-NH2)2-DIG] (I: Ac-[Pen][NMeR]SDTL[Pen]WE[dK]-NH2 / II: Ac-[Pen][NMeR]SDTL[Pen]WE[dK]-NH2; disulfide I:1-I:7, II:1-II:7 (inferred); linker I:10-II:10 via Diglycolyl (inferred))	> 6	–	1.2

— US9809623B2, “α4β7 peptide monomer and dimer antagonists” (Protagonist Therapeutics, Inc., priority 2014, dated 2017)
